Data on 2 compounds can be found in publication PMC9166630, “SAR Probing of KX2-391 Provided Analogues With Juxtaposed Activity Profile Against Major Oncogenic Kinases” (Frontiers in Oncology, 2022).

Data set [1] relates to human skin fibroblasts (HSF). As to the kind of experiment: Normal cell line assay. The data set is classed as cell-based. Particulars: Skin fibroblast. As to the method: In addition to having a good physicochemical profile, it is important for a studied lead to differentiate between cancer cells and highly proliferating non-cancerous cells. Therefore, we assessed compounds 4e and 4n for both the in silico and in vitro physicochemical characteristics as well as for cytotoxic effect on human skin fibroblasts (HSF) cell lines.
The effect of the two compounds was evaluated for their effect on the growth and proliferation human skin fibroblasts (HSF) as an example of non-cancerous cell lines.

The nature of data set [2]: Maximum kinetic aqueous solubility. The data set is classed as physicochemical. The settings on record: 2% DMSO/PBS, pH 7.4, read-out: Max. aq. Sol. As to the method: Solubility assays were performed using Millipore MultiScreen® HTS-PFC Filter Plates designed for solubility assays (EMD Millipore, Billerica, MA). Assays were run in triplicate. The 96-well plates consist of two chambers separated by a filter. Liquid handling was performed using JANUS® Verispan and MTD workstations (Perkin Elmer, Waltham, MA). 4 µL of 4e or 4n solution (10 mM in DMSO) was added to 196 µL of phosphate buffer (45 mM potassium phosphate, 45 mM sodium acetate, 45 mM ethanolamine, pH = 7.4) in the top chamber to give a final DMSO concentration of 2% and a theoretical drug concentration of 200 µM. Plates were gently shaken for 90 min and then subjected to vacuum. Insoluble drug is captured on the filter. 160 µL of the filtrate is transferred to 96-well Griener UV Star® analysis plates (Sigma–Aldrich, St. Louis, MO) containing 40 µL of acetonitrile. The test compound concentration in the filtrate is measured by UV absorbance on a Spectromax® Plus microplate reader (Molecular Devices, Sunnyvale, CA) using Softmax Pro software v.5.4.5. Absorbances at 5 wavelengths (280, 300, 320, 340, and 360 nm) were summed to generate the UV signal. Standard curves were generated by adding 4 µL of five concentrations of test compound in DMSO to 40 µL of acetonitrile in UV Star plates followed by 156 µL of the appropriate solubility medium. Analysis and statistics were performed using GraphPad® Prism v.5.04. Data were reported as the maximum concentration observed in the filtrate.

The target of another data set is T1, CYP2C9 (Homo sapiens, UniProt P11712).
T1 construct: purchased Fisher Scientific; host or cells: insect cells (supersomes)
As to the kind of experiment: Inhibition assay of human CYP450 enzymes, 2C9. In kind it is in vitro ADME. The settings on record: for IC50: fluorescent substrate; for no inhibition of CYP2C9 at concentrations up to: the values are: IC50. As to the method:
The two compounds 4e and 4n were assessed for their ability to inhibit the three major human CYP450 enzymes, 3A4, 2D6 and 2C9. Assays were run in triplicate. Expressed enzymes in insect supersomes (Fisher Scientific, Waltham, MA) were used to minimize non-specific binding and membrane partitioning issues ([68]). The 3A4 assay uses testosterone as a substrate and analysis was performed by LC/MS/MS on a Waters Xevo TQ instrument as described above using positive electrospray ionization. Assay acceptance criteria was 20% for all standards and 25% for the LLOQ. The 2D6 and 2C9 assays use fluorescent substrates (3-[2-(N,N-diethylamino)ethyl]-7-methoxy-4-methylcoumarin for 2D6; 7-methoxy-4-(trifluoromethyl)coumarin for 2C9) and were analyzed on an Envision plate reader. GraphPad® Prism v 5.04 was used for nonlinear fitting of data to generate IC50 values.

A short description of data set [3]: Stability in mouse plasma. In kind it is in vitro ADME. Particulars: CD-1, mouse, pH 7.4, 37°C, read-out: Mouse Plasma Stability t1/2. As to the method: The assay was conducted at 37°C in triplicate. Test compounds or procaine (positive control) were tested at a final concentration of 1 µM in either 2.5% DMSO/CD-1 mouse plasma (Innovative Research, Novi, MI; sodium heparin added as anticoagulant; pH adjusted to 7.4 with 2N HCl on day of use) or 2.5% DMSO/PBS (pH 7.4: 136.9 mM NaCl, 2.68 mM KCl, 8.1 mM Na2HPO4, 1.47 mM KH2PO4, 0.9 mM CaCl2, 0.49 mM MgCl2). At seven time points, reaction mixture aliquots were transferred to 96-shallow well stop plates on ice containing acetonitrile with 0.1 µM propafenone. Samples were analyzed by LC/MS/MS on a Waters Xevo TQ instrument as described above using positive electrospray ionization. Assay acceptance criteria was 20% for all standards and 25% for the LLOQ. GraphPad® Prism v. 5.04 was used for nonlinear fitting of data to generate t1/2 values.

Data set [4] is described as follows: Binding to mouse plasma proteins (equilibrium dialysis). In kind it is in vitro ADME. The settings on record: 10 µM, 37°C, 22 h dialysis. Here is the method:
The equilibrium dialysis method for determining plasma protein binding was performed as previously described using 96-well dialyzer plates with molecular weight cutoff of 5K (Harvard Aparatus, Holliston, MA) and a dual-plate rotator set to maximum speed (Harvard Aparatus, Holliston, MA) located in a 37°C incubator with a 10% CO2-atmospheric environment. Assays were run in triplicate. The test compounds were added to CD-1 mouse plasma (Innovative Research, Novi, MI, sodium heparin added as anticoagulant; pH adjusted to 7.4 with 2N HCl on day of use) in DMSO (final DMSO concentration 0.4%) to give 10 µM final concentration. Drug/plasma mixture and buffer (Dulbecco’s phosphate-buffered saline 1X without calcium and magnesium, Mediatech, Inc., Herndon, VA) were placed in their respective sides, wells were capped, and the plate was placed in the rotator and allowed to dialyze for 22 h. Following dialysis, aliquots of buffer and plasma mixture were removed and mixed with aliquots of the opposite matrix in 96-well deep plates. Concentrations of analytes from each side of the dialysis plate were determined by LC/MS/MS on a Waters Xevo TQ instrument as described above using positive electrospray ionization. […] The fraction unbound was calculated by dividing the drug concentration in the buffer side of the dialysis plate by the drug concentration in the plasma side.
For orientation: Equilibrium dialysis compares concentrations on both sides of a semipermeable membrane.

The mark [5] stands for this setting: phosphate buffer with 2% DMSO, aqueous buffer, kinetic from dmso stock.

Molecules are shown by their SMILES. Converted amounts (≈) assume the structure as drawn. Like-named read-outs stand apart in the source and are kept apart here. A value given as a limit tells only on which side of the number the result lay.

T1 sequence (P11712 whole entry): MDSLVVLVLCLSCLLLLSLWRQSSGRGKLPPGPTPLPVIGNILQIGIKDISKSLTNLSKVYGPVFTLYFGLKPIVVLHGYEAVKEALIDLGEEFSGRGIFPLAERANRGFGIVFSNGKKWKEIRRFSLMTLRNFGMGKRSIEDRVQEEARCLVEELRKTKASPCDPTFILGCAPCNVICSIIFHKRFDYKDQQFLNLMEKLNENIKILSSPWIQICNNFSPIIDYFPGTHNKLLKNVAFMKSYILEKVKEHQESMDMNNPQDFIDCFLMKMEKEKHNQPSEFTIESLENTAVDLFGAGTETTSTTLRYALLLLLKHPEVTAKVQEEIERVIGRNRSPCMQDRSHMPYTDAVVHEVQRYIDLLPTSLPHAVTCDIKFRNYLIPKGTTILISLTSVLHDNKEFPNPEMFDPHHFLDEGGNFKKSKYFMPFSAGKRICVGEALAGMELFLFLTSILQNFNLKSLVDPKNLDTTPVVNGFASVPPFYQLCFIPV

Regarding `O=C(Cc1ccc(NC(=O)c2cccc(Cl)c2)cc1)NCc1ccccc1` [Compound 4e, N-(4-(2-(benzylamino)-2-oxoethyl)phenyl)-3-chlorobenzamide], the figures for the IC50 (in data set [1]; against CYP2C9) were greater than 20 µM and greater than 10 µM, respectively. Also, the figures for the solubility kinetic at 90 min in data set [2] and in data set [2] (setting [5]) were less than 2.0 µM and less than 2 µM, respectively. On CYP2C9, the no inhibition of CYP2C9 at concentrations up to is greater than 10 µM. For the same compound, the half-life at 1 µM in data set [3] was greater than 5 h. Further, the “Mouse PPB (% free)” value in data set [4] came out at 0.8 % free.
For `O=C(Cc1ccc(NC(=O)c2cccc(Cl)n2)cc1)NCc1ccccc1` [Compound 4n, N-(4-(2-(benzylamino)-2-oxoethyl)phenyl)-6-chloropicolinamide], the midpoint of inhibition in data set [1], the IC50, lay at 0.27 ± 0.03 µM. The solubility kinetic at 90 min in data set [2] (setting [5]) was found to be 2.6 µM (≈ 0.988 µg/mL). Moreover, at CYP2C9, the IC50 (commonly the concentration needed to halve the response being measured) was greater than 10 µM and the no inhibition of CYP2C9 at concentrations up to is greater than 10 µM. The half-life at 1 µM in data set [3] came to 2.97 h. For the same compound, the “Mouse PPB (% free)” value in data set [4] is recorded as “Unstable”.
